Source: US4431638A, “Poly-cation salts of bis(or tris)[4-0-monohexose-thio]-arylene sulfate derivatives” (American Cyanamid Company, priority 1982, dated 1984)
Where two headings read alike, the source gives them in different places.

How the values were obtained:
[1] = test system: late components of human complement (C3-C9); assay: Test Code 035 (C3-C9 inhibitor), lysis of EAC 142; type: biochemical; details: serial twofold dilution assay; higher well number indicates higher activity
Protocol: (§1) Percent inhibition is calculated by comparison with simultaneous controls.
(§2) *Tests identified by code herein. For a discussion of the tests, see
(§3) **Activity in wells, a serial dilution assay; higher well number indicate

activated human C1 = activated human C1 (Homo sapiens, UniProt P09871); assay: Test Code 026 (C1 inhibitor); type: biochemical; details: serial twofold dilution assay; higher well number indicates higher activity
Protocol: as §1, §2, §3

complement system = details: Br. J. Exp. Pathol. 33: 327 (1952); cited from earlier work
[2] = test system: hereditary angioneurotic edema; details: known complement inhibitors, literature reports; cited from earlier work
[3] = test system: total hemolytic complement activity; details: both in vitro and in vivo; cited from earlier work
[4] = test system: complement activity of sera; assay: Guinea Pig Intraperitoneal Test (GPIP); type: in vivo; details: 200 mg/kg i.p.; for inhibition at 200 mg/kg: Cavia porcellus, ip
Protocol: as §1

With O=S(=O)(O)OC[C@H]1O[C@@H](Sc2ccc(NS(=O)(=O)c3ccc4c(S(=O)(=O)Nc5ccc(S[C@@H]6O[C@H](COS(=O)(=O)O)[C@@H](OS(=O)(=O)O)[C@H](OS(=O)(=O)O)[C@H]6OS(=O)(=O)O)cc5)cc(S(=O)(=O)Nc5ccc(S[C@@H]6O[C@H](COS(=O)(=O)O)[C@@H](OS(=O)(=O)O)[C@H](OS(=O)(=O)O)[C@H]6OS(=O)(=O)O)cc5)cc4c3)cc2)[C@H](OS(=O)(=O)O)[C@@H](OS(=O)(=O)O)[C@@H]1OS(=O)(=O)O [Dodecasodium N,N',N"-tris[4-[(2,3,4,6-tetra-O-sulfo-β-D-glucopyranosyl)thio]phenyl]-1,3,6-naphthylenetrisulfonamide] the “In vitro Activity C-Late 035 Wells” value [1] was 1 Wells and the “In vitro Activity C-1 026 Wells” value (activated human C1) was 5 Wells.
For heparin, the anticomplementary effect (complement system) is listed as “anticomplementary effect”.
In the case of NC[C@H]1CC[C@H](C(=O)O)CC1 [tranexamic acid], the “success in the treatment of hereditary angioneurotic edema” value [2] is given as “used with success”.
In the case of NCCCCCC(=O)O [epsilon-aminocaproic acid], the “success in the treatment of hereditary angioneurotic edema” value [2] is given as “used with success”.
For pentosan-polysulfoester, the “anticomplementary activity on human serum, judged by reduction in total hemolytic complement activity” value [3] is listed as “anticomplementary activity”.
For O=S(=O)(O)OC[C@H]1O[C@@H](Sc2ccc(NS(=O)(=O)c3cc(S(=O)(=O)Nc4ccc(S[C@@H]5O[C@H](COS(=O)(=O)O)[C@@H](OS(=O)(=O)O)[C@H](OS(=O)(=O)O)[C@H]5OS(=O)(=O)O)cc4)cc(S(=O)(=O)Nc4ccc(S[C@@H]5O[C@H](COS(=O)(=O)O)[C@@H](OS(=O)(=O)O)[C@H](OS(=O)(=O)O)[C@H]5OS(=O)(=O)O)cc4)c3)cc2)[C@H](OS(=O)(=O)O)[C@@H](OS(=O)(=O)O)[C@@H]1OS(=O)(=O)O.[Na].[Na].[Na].[Na].[Na].[Na].[Na].[Na].[Na].[Na].[Na].[Na] [Dodecasodium N,N',N"-tris[4-[(2,3,4,6-tetra-O-sulfo-β-D-glucopyranosyl)thio]phenyl]-1,3,5-benzenetrisulfonamide], the “In vitro Activity C-Late 035 Wells” value [1] was 2 Wells, the “In vivo Activity (Guinea Pig % Inhibition) Intraperitoneal, 2 hours” value ([4]; serum complement 2 hours after injection) was 93% and the “In vivo Activity (Guinea Pig % Inhibition) Intraperitoneal, 6 hours” value ([4]; serum complement 6 hours after injection) was 76%. For the same compound, the inhibition at 200 mg/kg ([4]; 2 h, serum complement 2 hours after injection, read-out: In vivo Activity (Guinea Pig % Inhibition) Intraperitoneal, 2 hours) was 91%, the inhibition at 200 mg/kg ([4]; 6 h, serum complement 6 hours after injection, read-out: In vivo Activity (Guinea Pig % Inhibition) Intraperitoneal, 6 hours) was 91% and the inhibition at 200 mg/kg ([4]; 24 h, serum complement 24 hours after injection, read-out: In vivo Activity (Guinea Pig % Inhibition) Intraperitoneal, 24 hours) was 87%. For the same compound, the “In vitro Activity C-1 026 Wells” value (activated human C1) was 10 Wells.
In the case of O=C(Nc1ccc(S[C@@H]2O[C@H](COS(=O)(=O)O)[C@@H](OS(=O)(=O)O)[C@H](OS(=O)(=O)O)[C@H]2OS(=O)(=O)O)cc1)c1cc(C(=O)Nc2ccc(S[C@@H]3O[C@H](COS(=O)(=O)O)[C@@H](OS(=O)(=O)O)[C@H](OS(=O)(=O)O)[C@H]3OS(=O)(=O)O)cc2)cc(C(=O)Nc2ccc(S[C@@H]3O[C@H](COS(=O)(=O)O)[C@@H](OS(=O)(=O)O)[C@H](OS(=O)(=O)O)[C@H]3OS(=O)(=O)O)cc2)c1.[Na].[Na].[Na].[Na].[Na].[Na].[Na].[Na].[Na].[Na].[Na].[Na] [Dodecasodium N,N',N"-tris[4-[(2,3,4,6-tetra-O-sulfo-β-D-glucopyranosyl)thio]phenyl]-1,3,5-benzenetricarboxamide], the “In vitro Activity C-Late 035 Wells” value [1] is reported as 1 Wells and the “In vitro Activity C-1 026 Wells” value (activated human C1) is reported as 4 Wells.
In the case of Nc1ccc2cc(S(=O)(=O)[O-])cc(O)c2c1N=Nc1ccc(NC(=O)Nc2ccc(N=Nc3c(N)ccc4cc(S(=O)(=O)[O-])cc(O)c34)c(S(=O)(=O)[O-])c2)cc1S(=O)(=O)[O-].[Na+].[Na+].[Na+].[Na+] [chlorazol fast pink, 3,3'-ureylenebis[6-(2-amino-8-hydroxy-6-sulfo-1-naphthylazo)benzenesulfonic acid], tetrasodium salt], the anticomplementary effect (complement system) is given as “anticomplementary effect”.
For O=C(Nc1ccc(S[C@@H]2O[C@H](COS(=O)(=O)O)[C@@H](OS(=O)(=O)O)[C@H](OS(=O)(=O)O)[C@H]2OS(=O)(=O)O)cc1)c1ccc(C(=O)Nc2ccc(S[C@@H]3O[C@H](COS(=O)(=O)O)[C@@H](OS(=O)(=O)O)[C@H](OS(=O)(=O)O)[C@H]3OS(=O)(=O)O)cc2)cc1.[Na].[Na].[Na].[Na].[Na].[Na].[Na].[Na] [Octasodium N,N'-bis[4-[(2,3,4,6-tetra-O-sulfo-β-D-glucopyranosyl)thio]phenyl]-1,4-benzenedicarboxamide], the “In vitro Activity C-Late 035 Wells” value [1] was 1 Wells and the “In vitro Activity C-1 026 Wells” value (activated human C1) was 4 Wells.
